From ChEMBL document CHEMBL1201862, “PubChem BioAssay data set” (2004)
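Where inhibition never reached the appropriate level, the endpoint shown equals the highest concentration tested. Otherwise, values were interpolated linearly from a five-concentration, 48-hour dose response in 96-well plates. GI50 = concentration required for 50% inhibition of growth.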 The source made the active and inactive calls. No stated cut-off is given here; in the data, active = GI50 up to about 1.1 µM and inactive = higher. Residues, ends and D or L forms follow the SMILES beside them. *: point of attachment. Boc = CC(C)(C)OC(=O)*

Columns and labels:
Test in all cases: NCI anticancer screen, dose series, 48 h
[1] = test system: A498
[2] = test system: 786-0
[3] = test system: CAKI-1
[4] = test system: COLO 205
[5] = test system: MCF7
[6] = test system: OVCAR-5
[7] = test system: HOP-62
[8] = test system: SR
[9] = test system: SNB-19
[10] = test system: KM12
[11] = test system: MDA-N
[12] = test system: SF-295
[13] = test system: SF-268
[14] = test system: LOX IMVI
[15] = test system: UACC-257
[16] = test system: SW-620
[17] = test system: HT-29
[18] = test system: NCI-H23
[19] = test system: NCI-H460
[20] = test system: SN12C

Measured: GI50

O=C1O/C(=C\c2ccc(O)c(Br)c2)C(c2ccc(O)cc2)=C1Cl
inactive: [1] 25.3 µM | [2] 42 µM | [3] 37 µM | [4] 47.5 µM | [5] 19.2 µM | [6] 51.3 µM | [7] 46.7 µM | [8] 35.1 µM | [9] 89.3 µM | [10] 34.2 µM | [11] 26.1 µM | [12] 40.5 µM | [13] 27.7 µM | [14] 42.2 µM | [15] 42.7 µM | [16] 38.2 µM | [17] 51.9 µM | [18] 22.4 µM | [19] 26.6 µM

N=C/N=C/C(=S)O[C@@H]1C(=O)N2CCC[C@@]23CCCC[C@@H]13
inactive: [1] > 12.5 µM | [2] > 12.5 µM | [3] > 12.5 µM | [4] > 12.5 µM | [5] > 12.5 µM | [6] > 12.5 µM | [7] > 12.5 µM | [8] > 12.5 µM | [9] > 12.5 µM | [10] > 12.5 µM | [11] > 12.5 µM | [12] > 12.5 µM | [20] > 12.5 µM | [13] > 12.5 µM | [14] > 12.5 µM | [15] > 12.5 µM | [17] > 12.5 µM | [18] > 12.5 µM | [19] > 12.5 µM

COc1ccc(OC)c2sc(N3C(=O)/C(=C/c4ccc(SC)cc4)N=C3c3ccccc3)nc12
inactive: [1] > 100 µM | [2] 43.3 µM | [3] 96.2 µM | [4] 58.5 µM | [5] 20.3 µM | [6] 47.3 µM | [7] 16.4 µM | [8] 26.4 µM | [9] 26.4 µM | [10] 20 µM | [11] 20.3 µM | [12] 42 µM | [20] 24.9 µM | [13] 14.1 µM | [14] 25.6 µM | [15] 17.3 µM | [16] 27.4 µM | [17] 23.1 µM | [19] 28.6 µM

COS(C)(=O)=O [METHANESULFONIC ACID METHYL ESTER]
inactive: [1] > 2 µM | [2] > 2 µM | [3] > 2 µM | [4] > 2 µM | [5] > 2 µM | [6] > 2 µM | [7] > 2 µM | [8] > 2 µM | [9] > 2 µM | [10] > 2 µM | [11] > 2 µM | [20] > 2 µM | [13] > 2 µM | [14] > 2 µM | [15] > 2 µM | [16] > 2 µM | [17] > 2 µM | [18] > 2 µM | [19] > 2 µM

Cc1cs/c(=N\C(P(=O)(O)O)P(=O)(O)O)n1C
inactive: [1] > 100 µM | [2] 90.8 µM | [3] > 100 µM | [4] > 100 µM | [5] > 100 µM | [6] > 100 µM | [7] > 100 µM | [8] > 100 µM | [9] > 100 µM | [10] > 100 µM | [11] > 100 µM | [12] > 100 µM | [13] > 100 µM | [14] > 100 µM | [15] > 100 µM | [16] > 100 µM | [17] > 100 µM | [18] > 100 µM | [19] > 100 µM

CC(C)(C)OC(=O)NC(Cc1ccc(O)cc1)C(=O)NC(CCCCN)C(=O)O (stereo not drawn) (Boc-Tyr-Lys-OH; configuration not given here)
inactive: [1] 24.8 µM | [2] 28.4 µM | [3] > 10 µM | [5] 30.4 µM | [6] 25 µM | [7] 20.6 µM | [8] 28.6 µM | [9] 22 µM | [11] 32.6 µM | [20] 19.9 µM | [13] 34.6 µM | [14] 15 µM | [15] 27.5 µM | [16] 33.3 µM | [17] 47.4 µM | [18] 18.5 µM | [19] 25.2 µM
